Measurements from patent US12679843B2, “Pyrrolopyrimidine amines as complement inhibitors” (BioCryst Pharmaceuticals, Inc., priority 2020, dated 2026).

Target: Factor D (Homo sapiens, UniProt P00746)
Experiment: Factor D esterolytic assay (Z-Lys-SBzl thioester substrate, DTNB, 405 nm)
Format: biochemical
Conditions: substrate Z-Lys-SBzl 1.29 mM, 100 mM HEPES, 500 mM NaCl, pH 7.5, 10% DMSO, tested a minimum of three times
How it was run: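 Run in pH 7.5 HEPES (100 mM) with 500 mM NaCl and 10% DMSO, with compound preincubated at room temperature or not before adding 1.29 mM Z-Lys-SBzl. Free thiol released by Factor D reacts with DTNB, and rate is followed at 405 nm minus 690 nm over 600 s. IC50 derives from rate-based inhibition, minimum three replicates.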

Sequence of Factor D (P00746 26-253): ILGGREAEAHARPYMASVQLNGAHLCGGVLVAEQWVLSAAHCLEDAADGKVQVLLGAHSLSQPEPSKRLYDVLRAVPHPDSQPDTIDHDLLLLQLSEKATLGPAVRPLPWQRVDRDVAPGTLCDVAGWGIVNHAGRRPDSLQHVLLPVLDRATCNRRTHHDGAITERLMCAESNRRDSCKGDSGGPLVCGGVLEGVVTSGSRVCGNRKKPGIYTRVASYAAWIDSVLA

IC50	SMILES
< 100 nM	C[C@@]12C[C@@H](C(=O)Nc3cccc(Br)n3)N(C(=O)Cn3c4cc(-c5ccccc5)ccc4c4c(N)ncnc43)[C@@H]1C2 [Compound 228a, (1R,3S,5R)-2-(2-(4-amino-7-phenyl-9H-pyrimido[4,5-b]indol-9-yl)acetyl)-N-(6-bromopyridin-2-yl)-5-methyl-2-azabicyclo[3.1.0]hexane-3-carboxamide]
< 100 nM	Cc1cc(-c2ccccc2)cc2c3c(N)ncnc3n(CC(=O)N3[C@@H]4C[C@@H]4C[C@H]3C(=O)Nc3cccc(Br)n3)c12 [Compound 229c, (1R,3S,5R)-2-(2-(4-amino-8-methyl-6-phenyl-9H-pyrimido[4,5-b]indol-9-yl)acetyl)-N-(6-bromopyridin-2-yl)-2-azabicyclo[3.1.0]hexane-3-carboxamide]
< 100 nM	Cc1cc(-c2ccccc2)cc2c3c(N)ncnc3n(CC(=O)N3[C@H](C(=O)Nc4cccc(Br)n4)C[C@@]4(C)C[C@@H]34)c12 [Compound 230a, (1R,3S,5R)-2-(2-(4-amino-8-methyl-6-phenyl-9H-pyrimido[4,5-b]indol-9-yl)acetyl)-N-(6-bromopyridin-2-yl)-5-methyl-2-azabicyclo[3.1.0]hexane-3-carboxamide]
< 100 nM	C[C@@]12C[C@@H](C(=O)Nc3cccc(Br)n3)N(C(=O)Cn3c4ccc(C(F)(F)F)nc4c4c(N)ncnc43)[C@@H]1C2 [Compound 231g, (1R,3S,5R)-2-(2-(4-amino-6-(trifluoromethyl)-9H-pyrido[2′,3′:4,5]pyrrolo[2,3-d]pyrimidin-9-yl)acetyl)-N-(6-bromopyridin-2-yl)-5-methyl-2-azabicyclo[3.1.0]hexane-3-carboxamide]
< 100 nM	C[C@@]12C[C@@H](C(=O)Nc3cccc(Br)n3)N(C(=O)Cn3c4ncnc(N)c4c4cccc(C(=O)O)c43)[C@@H]1C2 [Compound 232a, 4-amino-9-(2-((1R,3S,5R)-3-((6-bromopyridin-2-yl)carbamoyl)-5-methyl-2-azabicyclo[3.1.0]hexan-2-yl)-2-oxoethyl)-9H-pyrimido[4,5-b]indole-8-carboxylic acid]
< 100 nM	Nc1ncnc2c1cc1n2C(C(=O)N2[C@@H](C(=O)Nc3cccc(Br)n3)C[C@@H]3C[C@@H]32)Oc2ccccc2-1 (stereo partly drawn) [Compound 233h, (1S,3R,5S)-2-(11-amino-6H-benzo[e]pyrimido[5′,4′:4,5]pyrrolo[1,2-c][,3]oxazine-6-carbonyl)-N-(6-bromopyridin-2-yl)-2-azabicyclo[3.1.0]hexane-3-carboxamide]
< 100 nM	Nc1ncnc2c1c1nc(C(F)(F)F)ccc1n2CC(=O)N1[C@@H]2C[C@@H]2C[C@H]1C(=O)Nc1cccc(Br)n1 [Compound 234a, (1R,3S,5R)-2-(2-(4-amino-6-(trifluoromethyl)-9H-pyrido[2′,3′:4,5]pyrrolo[2,3-d]pyrimidin-9-yl)acetyl)-N-(6-bromopyridin-2-yl)-2-azabicyclo[3.1.0]hexane-3-carboxamide]
> 1000 nM	O=C1NCc2cnc3c(ccn3CC(=O)N3C[C@H](F)C[C@H]3C(=O)NCc3cccc(Cl)c3F)c2N1 [Compound 235a, (2S,4R)—N-(3-chloro-2-fluorobenzyl)-4-fluoro-1-(2-(2-oxo-3,4-dihydro-1H-pyrrolo[3′,2′:5,6]pyrido[4,3-d]pyrimidin-7 (2H)-yl)acetyl)pyrrolidine-2-carboxamide]
< 100 nM	Nc1ncnc2c1c1cc(Cl)ccc1n2CC(=O)N1[C@@H]2C[C@@H]2C[C@H]1C(=O)Nc1cccc(Br)n1 [Compound 236f, (1R,3S,5R)-2-(2-(4-amino-6-chloro-9H-pyrimido[4,5-b]indol-9-yl)acetyl)-N-(6-bromopyridin-2-yl)-2-azabicyclo[3.1.0]hexane-3-carboxamide]
< 100 nM	C[C@@]12C[C@@H](C(=O)Nc3cccc(Br)n3)N(C(=O)Cn3c4ccc(Cl)cc4c4c(N)ncnc43)[C@@H]1C2 [Compound 237a, (1R,3S,5R)-2-(2-(4-amino-6-chloro-9H-pyrimido[4,5-b]indol-9-yl)acetyl)-N-(6-bromopyridin-2-yl)-5-methyl-2-azabicyclo[3.1.0]hexane-3-carboxamide]
< 100 nM	COc1cc(Cl)cc2c3c(N)ncnc3n(CC(=O)N3[C@@H]4C[C@@H]4C[C@H]3C(=O)Nc3cccc(Br)n3)c12 [Compound 238g, (1R,3S,5R)-2-(2-(4-amino-6-chloro-8-methoxy-9H-pyrimido[4,5-b]indol-9-yl)acetyl)-N-(6-bromopyridin-2-yl)-2-azabicyclo[3.1.0]hexane-3-carboxamide]
< 100 nM	COc1cc(Cl)cc2c3c(N)ncnc3n(CC(=O)N3[C@H](C(=O)Nc4cccc(Br)n4)C[C@@]4(C)C[C@@H]34)c12 [Compound 239a, (1R,3S,5R)-2-(2-(4-amino-6-chloro-8-methoxy-9H-pyrimido[4,5-b]indol-9-yl)acetyl)-N-(6-bromopyridin-2-yl)-5-methyl-2-azabicyclo[3.1.0]hexane-3-carboxamide]
< 100 nM	COC(=O)c1cc(OC)c2c(c1)c1c(N)ncnc1n2CC(=O)N1[C@@H]2C[C@@H]2C[C@H]1C(=O)Nc1cccc(Br)n1 [Compound 240g, methyl 4-amino-9-(2-((1R,3S,5R)-3-((6-bromopyridin-2-yl)carbamoyl)-2-azabicyclo[3.1.0]hexan-2-yl)-2-oxoethyl)-8-methoxy-9H-pyrimido[4,5-b]indole-6-carboxylate]
< 100 nM	COC(=O)c1cc(OC)c2c(c1)c1c(N)ncnc1n2CC(=O)N1[C@H](C(=O)Nc2cccc(Br)n2)C[C@@]2(C)C[C@@H]12 [Compound 241a, methyl 4-amino-9-(2-((1R,3S,5R)-3-((6-bromopyridin-2-yl)carbamoyl)-5-methyl-2-azabicyclo[3.1.0]hexan-2-yl)-2-oxoethyl)-8-methoxy-9H-pyrimido[4,5-b]indole-6-carboxylate]
< 100 nM	COc1cc([N+](=O)[O-])cc2c3c(N)ncnc3n(CC(=O)N3[C@@H]4C[C@@H]4C[C@H]3C(=O)Nc3cccc(Br)n3)c12 [Compound 242g, (1R,3S,5R)-2-(2-(4-amino-8-methoxy-6-nitro-9H-pyrimido[4,5-b]indol-9-yl)acetyl)-N-(6-bromopyridin-2-yl)-2-azabicyclo[3.1.0]hexane-3-carboxamide]
< 100 nM	COc1cc([N+](=O)[O-])cc2c3c(N)ncnc3n(CC(=O)N3[C@H](C(=O)Nc4cccc(Br)n4)C[C@@]4(C)C[C@@H]34)c12 [Compound 243a, (1R,3S,5R)-2-(2-(4-amino-8-methoxy-6-nitro-9H-pyrimido[4,5-b]indol-9-yl)acetyl)-N-(6-bromopyridin-2-yl)-5-methyl-2-azabicyclo[3.1.0]hexane-3-carboxamide]
< 100 nM	Nc1ncnc2c1c1cccc(-c3ccccc3)c1n2CC(=O)N1[C@@H]2C[C@@H]2C[C@H]1C(=O)Nc1cccc(Br)n1 [Compound 244d, (1R,3S,5R)-2-(2-(4-amino-8-phenyl-9H-pyrimido[4,5-b]indol-9-yl)acetyl)-N-(6-bromopyridin-2-yl)-2-azabicyclo[3.1.0]hexane-3-carboxamide]
< 100 nM	C[C@@]12C[C@@H](C(=O)Nc3cccc(Br)n3)N(C(=O)Cn3c4ncnc(N)c4c4cccc(-c5ccccc5)c43)[C@@H]1C2 [Compound 245a, (1R,3S,5R)-2-(2-(4-amino-8-phenyl-9H-pyrimido[4,5-b]indol-9-yl)acetyl)-N-(6-bromopyridin-2-yl)-5-methyl-2-azabicyclo[3.1.0]hexane-3-carboxamide]
